Values of other authors in patent US10543277B2, “Formulation of curcumin with enhanced bioavailability of curcumin and method of preparation and treatment thereof” (ARJUNA NATURAL PRIVATE LIMITED, priority 2005, dated 2020).

Assays:
COX pathway = conditions: 10 μM
[1] = system: LOX (lipoxygenase) pathway; conditions: 10 μM
oral premalignancy = conditions: for responded to maintenance therapy or continued to have stable lesions / subjects who responded to maintenance therapy or continued to have stable lesions: maintenance phase; for subjects who responded to maintenance therapy or continued to have stable lesions: 53 evaluable
[2] = among the 24 13-cRA subjects, 1-2 mg/kg/day for three months

Row | inhibition of conversion of arachidonic acid to 5-hydroxyeicosatetraenoic acid [1] [%] | inhibition of conversion of arachidonic acid to 8-hydroxyeicosatetraenoic acid [1] [%] | SMILES | inhibition of metabolism of arachidonic acid to PGD2 (COX pathway) [%] | inhibition of metabolism of arachidonic acid to PGE2 (COX pathway) [%] | inhibition of metabolism of arachidonic acid to PGF2α (COX pathway) [%] | subjects with complete responses (OPLs; [2]) | subjects with partial responses (OPLs; [2]) | relapse after end of therapy (OPLs; in vivo) | subjects with intolerable conjunctivitis and hypertriglyceridemia (OPLs; receiving 2 mg/kg) | rate of response at the conclusion of induction (oral premalignancy; high-dose induction therapy) [%] | rate of stable disease at the conclusion of induction (oral premalignancy; high-dose induction therapy) [%] | responded to maintenance therapy or continued to have stable lesions (oral premalignancy) [%] | subjects who responded to maintenance therapy or continued to have stable lesions (oral premalignancy)
1 | 60 | 51 | COc1cc(/C=C/C(=O)CC(=O)/C=C/c2ccc(O)c(OC)c2)ccc1O [Curcumin, 1,7-bis(4-hydroxy-3-methoxyphenyl)-1,6-heptadiene-3,5-dione] | 73 | 70 | 64 |  |  |  |  |  |  |  | 
2 |  |  | CC1=C(/C=C/C(C)=C/C=C/C(C)=C\C(=O)O)C(C)(C)CCC1 [13-cRA, 13-cis-retinoic acid] |  |  |  | 2 | 14 | 2-3 months | 2 | 55 | 35 | 92 | 22
3 |  |  | CC1=C(/C=C/C(C)=C/C=C/C(C)=C/C=C/C=C(C)/C=C/C=C(C)/C=C/C2=C(C)CCCC2(C)C)C(C)(C)CCC1 [β-carotene] |  |  |  |  |  |  |  |  |  | 45 | 13
